Reference: patent US20250064791A1, “5-[[4-[2-[5-(1-HYDROXYETHYL)PYRIDIN-2-YL]ETHOXY]PHENYL]METHYL]-1,3-THIAZOLIDINE-2,4-DIONE AND ITS SALTS FOR USE IN THE TREATMENT OF MITOCHONDRIAL DISEASES” (MINORYX THERAPEUTICS S.L., priority 2018, published 2025)

Key:
[1] = target: mitochondrial pyruvate carrier (MPC) (Homo sapiens (Human), UniProt O95563+Q9Y5U8); test: MPC inhibitory activity, BRET assay in HEK cells; type: cell-based
Procedure: The MPC is a heterodimer composed of two subunits, MPC1 and MPC2. MPC1 and MPC2 interact to form an active carrier. In the assay, MPC2 was fused to Rluc8 (Donor) and MPC1 to Venus (Acceptor). These chimeric proteins were stably expressed in HEK cells. BRET activity was measured following addition of coelenterazine in the culture medium. Coelenterazine enters into cells and in contact with luciferase Rluc8 emits light, which activates the emission of fluorescence by the Acceptor, provided the distance between the Donor and Acceptor is <[…]. If the distance between Donor and Acceptor is >[…], no BRET activity is measured. The level of BRET activity reflects a change in the conformation of the MPC: it is high when the carrier is in a closed conformation, low when the carrier is at rest and intermediary when it transports pyruvate. In this case, the BRET activity is the mean value between the BRET value when the carrier is at rest (Maximal distance between Donor and Acceptor) and the BRET value when it is closed (Shortest distance between Donor and Acceptor)

[2] = humans, compared with pioglitazone; from PCT/IB2017/057587; cited from earlier work
adiponectin = test: Plasma adiponectin levels in Sprague Dawley rats (ELISA); type: in vivo; details: 54 mg/Kg/day for 7 days, plasma 1 h after last administration, vs vehicle
Procedure: Evaluation of the effect of Compounds of the Disclosure on adiponectin was performed in Sprague Dawley rats. The rats were treated for 7 days with repeated doses of MIN-102 at 54 mg/Kg/day. Plasma were obtained at 1 h after the last M1N-102 administration. Adiponectin levels were measured by ELISA. Results were represented as mean+standard error of the mean of n=8. Data were analyzed by Kruskal-Wallis followed by the Dunn post-hoc test versus the vehicle group (****,p<0.0001).

[3] = tested on: wild type MDA MB 231 cells; test: Mitochondrial respiration (OCR), Seahorse, wild type MDA MB231 cells; type: cell-based; details: cells with active MPC
Procedure: (§1) To determine whether MIN-102 has any effect on pyruvate-mediated mitochondrial respiration, the extracellular flux analyzer Seahorse was used as described in Compan et al. Seahorse experiments were performed in the following cell lines: HeLa (Cervix cancer cells), A549 (lung cancer cells), wild type MDA MB 231, and MDA MB 231 in which MPC2 has been deleted, leading to inactivation of the MPC (MDA MB231 KO). MDA MB231 cells are epithelial breast cancer cells. Cells were incubated with increasing concentrations of the compounds for one hour at 37° C. before oxygen consumption rate (OCR) measurements. The Seahorse analyzer allowed to measure basal and maximal respiration measured upon depolarization with 1 μM CCCP.
(§2) The KO cells have been deleted of the MPC2 gene and therefore they display no MPC activity. […] OCR values are expressed as ratios of OCR in the presence of different concentrations of the tested compound over the OCR in PBS alone.

MDA MB231 KO cells = test: Mitochondrial respiration (OCR), Seahorse, MDA MB231 KO cells (MPC2 deleted); type: cell-based; details: MPC activity genetically deleted (MPC2 KO)
Procedure: as §1, §2

[4] = tested on: MCD diet fed C57BL6/J mice; test: Methionine Choline Deficient (MCD) diet NASH mouse model; type: in vivo, C57BL6/J male mice; details: 62.5 mg/kg BID orally
Procedure: The preventive effects of MIN-102 was evaluated in a 7-week Methionine Choline Deficient (MCD) diet NASH mouse model (Verdelho Machado et al.). After the acclimation period, C57BL6/J male mice (n=20) were weighed and randomized into 2 homogenous treatment groups based on body weight (n=10/group), put on a MCD diet, and treated BID orally with vehicle or MIN-102 for 7 weeks.
MIN-102 was dosed 62.5 mg/kg BID orally by gavage.
After the acclimation period, C57BL6/J male mice (n=20) were weighed and randomized into 2 homogenous treatment groups based on body weight (n=10/group), put on a MCD diet, and treated BID orally with a vehicle or MIN-102 (125 mg/Kg/day) for 7 weeks. Body weight was measured 3 times/week until the end of the experimental phase.
At 7 weeks of diet/treatment, mice were weighed and treated at ˜08:00 am in the morning, then bled (maximal volume/EDTA) at ˜1:00 pm. Plasma was then immediately isolated and stored at −80° C. prior to assay plasma ALT and AST. The plasma volume left over was stored at −80° C. for eventual additional analysis.
After blood collection, the mice were sacrificed by cervical dislocation under isoflurane anesthesia and exsanguinated with sterile saline.
Histology analysis was performed (oil red O, H&E and Sirius Red staining) for NAFLD scoring system (NAS) for liver steatosis, inflammation, fibrosis and hepatocyte ballooning.

mitochondrial pyruvate carrier (MPC), sequence (Q9Y5U8 whole entry, the tested form may be a part): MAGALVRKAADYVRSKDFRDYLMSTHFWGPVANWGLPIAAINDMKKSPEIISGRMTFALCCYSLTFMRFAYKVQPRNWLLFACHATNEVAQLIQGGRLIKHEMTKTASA
mitochondrial pyruvate carrier (MPC), sequence (O95563 whole entry, the tested form may be a part): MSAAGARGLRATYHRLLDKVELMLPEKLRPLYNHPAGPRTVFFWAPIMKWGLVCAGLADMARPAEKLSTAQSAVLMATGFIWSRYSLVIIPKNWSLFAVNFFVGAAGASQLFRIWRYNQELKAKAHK

Row | Compound | IC50 [1] | variability in exposure (PK variability) [2] | adiponectin levels in plasma (adiponectin) | effect on oxygen consumption [3] | effect on oxygen consumption (MDA MB231 KO cells) | hepatic cholesterol levels ([4]; 7 weeks) | oil red o staining % ([4]; 7 weeks, vs vehicle) | reduction in hepatic triglycerides levels ([4]; 7 weeks, vs vehicle) | reduction of plasma ALT level ([4]; 7 weeks, vs vehicle) | reduction of plasma AST level ([4]; 7 weeks, vs vehicle) | Mean NAS group score ([4]; 7 weeks, histology) | liver inflammation ([4]; 7 weeks, histology) | steatosis score ([4]; 7 weeks, histology, vs vehicle) | body weight loss ([4]; day 14 to day 50, vs vehicle)
1 | CN(CCOc1ccc(CC2SC(=O)NC2=O)cc1)c1ccccn1 (centres unmarked) [Rosiglitazone] | 2000 nM | – | – | – | – | – | – | – | – | – | – | – | – | –
2 | CC(O)c1ccc(CCOc2ccc(CC3SC(=O)NC3=O)cc2)nc1 (racemic) [MIN-102, 5-[[4-[2-[5-(1-hydroxyethyl)pyridin-2-yl]ethoxy]phenyl]methyl]-1,3-thiazolidine-2,4-dione] | – | less variability in exposure than pioglitazone | significantly increased | inhibits oxygen consumption in a MPC dependent manner | does not inhibit oxygen consumption | did not show a change | extremely low | 92% | 78% | 55% | 0.44±01 | total disappearance of inflammation | blunted steatosis score | less severe decline in body weight loss
